Data from ChEMBL document CHEMBL4808180, “Identification of 2,2-Dimethylbutanoic Acid (HST5040), a Clinical Development Candidate for the Treatment of Propionic Acidemia and Methylmalonic Acidemia” (J Med Chem, 2021).
Active and inactive are the calls of the source. No cut-off for these calls is given here.

Experiments:
[1] = Reduction of acetyl-CoA in human hepatocytes derived from methylmalonic acidemia patient at 30 uM pretreated for 30 mins followed by 13C-isoleucine addition and measured after 1 hr by MS/MS analysis relative to control; assay type: functional, Hepatocyte; parameters: scale not given: the % may be the effect or the level left; conditions: time 90 min, 1.5 h
Hepatocyte = test: Cytotoxicity against rat hepatocytes assessed as reduction in cell viability using radiolabeled compound; assay type: cell-based
[2] = Reduction of propionyl carnitine in human hepatocytes derived from methylmalonic acidemia patient pretreated for 30 mins followed by 13C-isoleucine addition and measured after 1 hr by MS/MS analysis; assay type: functional, cell-based; conditions: hepatocyte
[3] = Stability in minipig hepatocytes assessed as unchanged compound at 50 uM measured after 4 hrs; assay type: ADME, cell-based, Sus scrofa domesticus, Hepatocyte; conditions: pig, read-out: Stabilty
[4] = Drug metabolism in Sprague-Dawley rat feces assessed as HST5040-carnitine metabolite formation at 10 mg/kg administered as single dose by LC/MS analysis; assay type: ADME, organism-based; conditions: in vivo
[5] = Drug metabolism in Beagle dog hepatocytes assessed as formation of 2,2-dimethylbutanoic acid-CoA incubated for 1 hrs by MS/MS analysis; assay type: ADME, cell-based; conditions: Canis lupus familiaris, Hepatocyte
[6] = Oral bioavailability in CD1 mouse at 300 mg/kg; assay type: ADME, organism-based; conditions: in vivo
[7] = Reduction of CoASH in human hepatocytes derived from methylmalonic acidemia patient pretreated for 30 mins followed by 13C-isoleucine addition and measured after 1 hr by MS/MS analysis; assay type: functional, cell-based; conditions: hepatocyte
[8] = target: Solute carrier family 22 member 2 (Homo sapiens) (UniProt O15244); test: Inhibition of human OCT2 assessed as reduction in OCT2-mediated metformin transport at 14900 uM relative to control
Solute carrier family 22 member 2 (Homo sapiens), sequence (O15244 whole entry, looked up): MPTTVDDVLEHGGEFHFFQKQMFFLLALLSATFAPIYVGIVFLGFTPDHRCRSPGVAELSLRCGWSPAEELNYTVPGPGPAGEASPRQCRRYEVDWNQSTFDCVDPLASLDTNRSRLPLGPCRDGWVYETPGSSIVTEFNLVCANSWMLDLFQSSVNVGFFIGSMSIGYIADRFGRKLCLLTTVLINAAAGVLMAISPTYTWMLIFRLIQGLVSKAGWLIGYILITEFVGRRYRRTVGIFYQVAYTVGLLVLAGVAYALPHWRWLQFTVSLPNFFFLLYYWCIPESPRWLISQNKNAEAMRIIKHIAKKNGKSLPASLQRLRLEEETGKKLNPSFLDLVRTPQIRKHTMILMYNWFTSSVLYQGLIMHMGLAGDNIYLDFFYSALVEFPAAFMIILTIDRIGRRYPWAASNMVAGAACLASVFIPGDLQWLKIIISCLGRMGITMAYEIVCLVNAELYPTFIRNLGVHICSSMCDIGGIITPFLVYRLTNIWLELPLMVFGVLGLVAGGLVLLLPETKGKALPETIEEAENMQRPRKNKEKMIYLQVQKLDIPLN

[9] = target: T1, Organic anion transporter 3 (Homo sapiens, UniProt Q8TCC7); test: Inhibition of human OAT3 assessed as reduction in OAT3-mediated tenofovir transport
T1 sequence (Q8TCC7 whole entry): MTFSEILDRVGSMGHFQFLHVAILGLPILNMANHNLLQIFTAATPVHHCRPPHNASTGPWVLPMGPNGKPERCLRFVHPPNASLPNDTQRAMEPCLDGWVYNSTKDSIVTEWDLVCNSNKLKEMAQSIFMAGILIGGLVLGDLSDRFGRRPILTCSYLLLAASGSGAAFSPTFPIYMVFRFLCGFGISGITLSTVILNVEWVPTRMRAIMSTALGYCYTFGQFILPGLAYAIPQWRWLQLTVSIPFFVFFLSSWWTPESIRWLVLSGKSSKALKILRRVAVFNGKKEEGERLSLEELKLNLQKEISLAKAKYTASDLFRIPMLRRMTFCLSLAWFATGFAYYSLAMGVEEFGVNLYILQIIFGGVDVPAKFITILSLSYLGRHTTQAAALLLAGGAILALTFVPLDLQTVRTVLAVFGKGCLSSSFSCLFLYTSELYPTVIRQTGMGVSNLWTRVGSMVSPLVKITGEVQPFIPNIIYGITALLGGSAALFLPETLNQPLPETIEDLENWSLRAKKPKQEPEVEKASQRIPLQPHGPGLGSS

[10] = Apparent permeability across apical to basal side in human MDCK2-MDR1; assay type: ADME, Canis lupus familiaris; conditions: dog, MDCK-MDR1
[11] = Half life in Sprague-Dawley rat at 50 mg/kg, po; assay type: ADME, organism-based; conditions: in vivo
[12] = Cmax in Sprague-Dawley rat at 50 mg/kg, po; assay type: ADME, organism-based; parameters: route oral, dose 50 mg/kg; conditions: in vivo
[13] = AUC (0 to infinity) in Sprague-Dawley rat at 50 mg/kg, po; assay type: ADME, organism-based; parameters: time infinity, route oral, dose 50 mg/kg; conditions: in vivo
[14] = AUC (0 to infinity) in CD1 mouse at 100 mg/kg, po; assay type: ADME, organism-based; parameters: route oral, time infinity, dose 100 mg/kg; conditions: in vivo
[15] = Drug metabolism in Sprague-Dawley rat feces assessed as HST5040-glucuronide metabolite formation at 10 mg/kg administered as single dose by LC/MS analysis; assay type: ADME, organism-based; conditions: in vivo
[16] = Reduction of propionyl-CoA in human hepatocytes derived from propionic acidemia patient at 100 uM pretreated for 30 mins followed by 13C-isoleucine addition and measured after 1 hr by MS/MS analysis relative to control; assay type: functional, Hepatocyte; parameters: scale not given: the % may be the effect or the level left; conditions: time 90 min, 1.5 h
[17] = Drug metabolism in human hepatocytes assessed as formation of 2,2-dimethylbutanoic acid-CoA incubated for 1 hrs by MS/MS analysis; assay type: ADME, cell-based; conditions: Hepatocyte
[18] = Tmax in Gottingen minipig at 10 mg/kg, po using radiolabeled compound by quantitative whole-body autoradiography; assay type: ADME, organism-based, Sus scrofa domesticus; conditions: pig, in vivo
[19] = Reduction of methylmalonyl-CoA in human hepatocytes derived from methylmalonic acidemia at 30 uM pretreated for 30 mins followed by 13C-isoleucine addition and measured after 1 hr by MS/MS analysis relative to control; assay type: functional, Hepatocyte; parameters: scale not given: the % may be the effect or the level left; conditions: time 90 min, 1.5 h
[20] = Half life in Sprague-Dawley rat plasma at 10 mg/kg, po using radiolabeled compound by quantitative whole-body autoradiography; assay type: ADME, organism-based; conditions: in vivo
[21] = Reduction of propionyl carnitine in human hepatocytes derived from propionic acidemia patient pretreated for 30 mins followed by 13C-isoleucine addition and measured after 1 hr by MS/MS analysis; assay type: functional, cell-based; conditions: hepatocyte
Cytochrome P450 3A4 = Cytochrome P450 3A4 (Homo sapiens, UniProt P08684); test: Direct inhibition of CYP3A4 in human liver microsomes using testosterone as substrate; assay type: ADME
Cytochrome P450 3A4, sequence (P08684 whole entry): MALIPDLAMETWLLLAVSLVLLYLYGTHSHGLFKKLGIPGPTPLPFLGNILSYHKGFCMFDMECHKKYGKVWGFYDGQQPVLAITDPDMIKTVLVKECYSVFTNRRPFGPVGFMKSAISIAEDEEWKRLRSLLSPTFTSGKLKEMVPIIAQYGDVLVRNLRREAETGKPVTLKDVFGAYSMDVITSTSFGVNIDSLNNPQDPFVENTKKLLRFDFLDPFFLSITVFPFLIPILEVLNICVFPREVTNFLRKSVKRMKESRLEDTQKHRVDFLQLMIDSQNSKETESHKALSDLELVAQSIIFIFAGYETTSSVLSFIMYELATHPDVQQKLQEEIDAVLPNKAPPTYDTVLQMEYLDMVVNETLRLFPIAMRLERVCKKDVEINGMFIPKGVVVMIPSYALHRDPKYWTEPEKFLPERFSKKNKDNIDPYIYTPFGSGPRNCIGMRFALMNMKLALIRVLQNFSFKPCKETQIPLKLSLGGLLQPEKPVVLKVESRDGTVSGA

[22] = Drug metabolism in Sprague-Dawley rat urine assessed as HST5040-glucuronide metabolite formation at 10 mg/kg administered as single dose by LC/MS analysis; assay type: ADME, organism-based; conditions: in vivo
[23] = Reduction of acetyl carnitine in human hepatocytes derived from methylmalonic acidemia patient pretreated for 30 mins followed by 13C-isoleucine addition and measured after 1 hr by MS/MS analysis; assay type: functional, cell-based; conditions: hepatocyte
[24] = AUC (0 to infinity) in Sprague-Dawley rat at 10 mg/kg, po; assay type: ADME, organism-based; parameters: time infinity, route oral, dose 10 mg/kg; conditions: in vivo
[25] = Reduction of 2-Methylcitric acid in human hepatocytes derived from methylmalonic acidemia patient at 30 uM pretreated for 30 mins followed by 13C-isoleucine addition and measured after 1 hr by MS/MS analysis relative to control; assay type: functional, Hepatocyte; parameters: scale not given: the % may be the effect or the level left; conditions: time 90 min, 1.5 h
[26] = Protein binding in Sprague-Dawley rat plasma at 40 uM incubated for 4 hrs by equilibrium dialysis; assay type: ADME, cell-free
OAT1 = target: T2, OAT1 (Homo sapiens, UniProt Q4U2R8); test: Inhibition of human OAT1 assessed as reduction in OAT1-mediated tenofovir transport at 14900 uM relative to control; conditions: not told, probe tenofovir
T2 sequence (Q4U2R8 whole entry): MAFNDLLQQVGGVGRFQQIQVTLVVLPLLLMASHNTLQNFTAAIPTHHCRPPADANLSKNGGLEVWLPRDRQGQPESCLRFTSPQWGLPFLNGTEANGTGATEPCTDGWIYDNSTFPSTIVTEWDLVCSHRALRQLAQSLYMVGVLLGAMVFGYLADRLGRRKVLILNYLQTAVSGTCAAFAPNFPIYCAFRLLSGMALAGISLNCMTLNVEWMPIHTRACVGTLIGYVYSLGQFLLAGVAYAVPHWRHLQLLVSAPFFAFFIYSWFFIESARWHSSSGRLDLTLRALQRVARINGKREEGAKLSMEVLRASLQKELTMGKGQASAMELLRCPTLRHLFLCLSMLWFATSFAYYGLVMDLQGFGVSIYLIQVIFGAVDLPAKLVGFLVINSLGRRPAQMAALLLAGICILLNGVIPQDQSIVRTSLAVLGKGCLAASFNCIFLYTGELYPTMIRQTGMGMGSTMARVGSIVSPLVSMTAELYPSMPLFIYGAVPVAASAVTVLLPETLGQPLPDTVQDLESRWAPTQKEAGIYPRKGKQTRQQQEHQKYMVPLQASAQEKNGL

remaining at 4 h, 50 µM [3]: 86%
Drug metabolism [4]: Metabolite_Detected
F [6]: 177.5%
inhibition [8]: inactive
IC50 [9]: 3510 µM
Papp A→B [10]: > 20 ×10⁻⁶ cm/s
half-life [11]: 3.27 h
Cmax [12]: 21900 ng/mL
AUC(0-inf) [13]: 33100 ng·h/mL
AUC(0-inf) [14]: 219000 ng·h/mL
Drug metabolism [15]: Metabolite_Detected
Tmax [18]: 0.5 h
t1/2 [20]: 2.4 h
IC50 (Cytochrome P450 3A4): > 10000 µM
Drug metabolism [22]: Metabolite_Detected
AUC(0-inf) [24]: 5520 ng·h/mL
PPB [26]: 0%
inhibition at 14900 µM (OAT1): 83.2%
SMILES: CCC(C)(C)C(=O)O [DIMEBUTIC ACID]
Activity [1]: 13.5%
Activity (Hepatocyte): Non-Toxic
EC50 [2]: 1.4 µM
EC50 [5]: 60 µM
EC50 [7]: 14.1 µM
Activity [16]: 87%
EC50 [17]: 5.9 µM
Activity [19]: -55%
EC50 [21]: 2.6 µM
EC50 [23]: 4.3 µM
Activity [25]: -66.7%
